Source: patent US6737383B1, “Herbicidal oxadiazolidines” (priority 1999, dated 2004)

How the values were obtained:
bedstraw = assay: Test B pre/postemergence bedstraw; type: in vivo, Galium aparine
In short: (§1)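 Test chemicals in a non-phytotoxic solvent mixture with surfactant were sprayed preemergence onto planted seeds and postemergence onto plants 2 to 18 cm tall (1- to 4-leaf stage). After twelve to sixteen days in a greenhouse, injury was visually rated against untreated controls from 0 (no effect) to 10 (complete control).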

blackgrass = assay: Test B pre/postemergence blackgrass; type: in vivo, Alopecurus myosuroides
In short: as §1

surinam grass = assay: Test B pre/postemergence surinam grass; type: in vivo, Brachiaria decumbens
In short: as §1

cocklebur = assay: Test B pre/postemergence cocklebur; type: in vivo, Xanthium strumarium
In short: as §1

corn = assay: Test B pre/postemergence corn; type: in vivo, Zea mays
In short: as §1

crabgrass = assay: Test B pre/postemergence crabgrass; type: in vivo, Digitaria sanguinalis
In short: as §1

giant foxtail = assay: Test B pre/postemergence giant foxtail; type: in vivo, Setaria faberii
In short: as §1

morningglory = assay: Test B pre/postemergence morningglory; type: in vivo, Ipomoea hederacea
In short: as §1

pigweed = assay: Test B pre/postemergence pigweed; type: in vivo, Amaranthus retroflexus
In short: as §1

rape = assay: Test B pre/postemergence rape; type: in vivo, Brassica napus
In short: as §1

soybean = assay: Test B pre/postemergence soybean; type: in vivo, Glycine max
In short: as §1

velvetleaf = assay: Test B pre/postemergence velvetleaf; type: in vivo, Abutilon theophrasti
In short: as §1

wheat = assay: Test B pre/postemergence wheat; type: in vivo, Triticum aestivum
In short: as §1

wild oat = assay: Test B pre/postemergence wild oat; type: in vivo, Avena fatua
In short: as §1

purple nutsedge = assay: Test B pre/postemergence purple nutsedge; type: in vivo, Cyperus rotundus
In short: as §1

[1] = Preemergence, Rate 62 g/ha, scale of 0 to 10 where 0 is no effect and 10 is complete control
[2] = Preemergence, Rate 125 g/ha, 0 is no effect, 10 is complete control
[3] = Preemergence, Rate 250 g/ha, scale 0 to 10, 0 is no effect, 10 is complete control
[4] = Preemergence, Rate 500 g/ha, scale of 0 to 10 where 0 is no effect and 10 is complete control
[5] = Rate 62 g/ha, Postemergence, scale of 0 to 10 where 0 is no effect and 10 is complete control
[6] = Rate 125 g/ha, Postemergence, scale 0 to 10
[7] = Rate 500 g/ha, Postemergence, scale 0 to 10

SMILES: CC(C)N(C(=O)n1oc(=O)n(Cc2ccco2)c1=O)c1ccc(F)cc1F [Compound 208]
- Bedstraw plant response rating (bedstraw; [1]): 0
- Bedstraw plant response rating (0 to 10 scale) (bedstraw; [2]): 0
- Bedstraw plant response rating (bedstraw; [3]): 0
- Plant response rating, Bedstraw (bedstraw; [4]): 0
- Bedstraw plant response rating (bedstraw; [5]): 0
- Bedstraw plant response rating (bedstraw; [6]): 0
- Plant response rating (0 to 10; 0 is no effect, 10 is complete control), Bedstraw (bedstraw; Rate 250 g/ha, Postemergence): 0
- Bedstraw plant response rating (bedstraw; [7]): 5
- Blackgrass plant response rating (blackgrass; [1]): 0
- Blackgrass plant response rating (0 to 10 scale) (blackgrass; [2]): 0
- Blackgrass plant response rating (blackgrass; [3]): 0
- Plant response rating, Blackgrass (blackgrass; [4]): 3
- Blackgrass plant response rating (blackgrass; [5]): 0
- Blackgrass plant response rating (blackgrass; [6]): 0
- Plant response rating (0 to 10; 0 is no effect, 10 is complete control), Blackgrass (blackgrass; Rate 250 g/ha, Postemergence): 0
- Blackgrass plant response rating (blackgrass; [7]): 7
- B. signalgrass plant response rating (surinam grass; [1]): 0
- B. signalgrass plant response rating (0 to 10 scale) (surinam grass; [2]): 0
- B. signalgrass plant response rating (surinam grass; [3]): 0
- Plant response rating, B. signalgrass (surinam grass; [4]): 0
- B. signalgrass plant response rating (surinam grass; [5]): 0
- B. signalgrass plant response rating (surinam grass; Rate 125 g/ha, Postemergence, scale 0 (no effect) to 10 (complete control)): 0
- Plant response rating (0 to 10; 0 is no effect, 10 is complete control), B. signalgrass (surinam grass; Rate 250 g/ha, Postemergence): 0
- B. signalgrass plant response rating (surinam grass; Rate 500 g/ha, Postemergence, scale 0 to 10, 0 no effect, 10 complete control): 3
- Cocklebur plant response rating (cocklebur; [1]): 0
- Cocklebur plant response rating (0 to 10 scale) (cocklebur; [2]): 0
- Cocklebur plant response rating (cocklebur; [3]): 0
- Plant response rating, Cocklebur (cocklebur; [4]): 0
- Cocklebur plant response rating (cocklebur; [5]): 0
- Cocklebur plant response rating (cocklebur; [6]): 0
- Plant response rating (0 to 10; 0 is no effect, 10 is complete control), Cocklebur (cocklebur; Rate 250 g/ha, Postemergence): 0
- Cocklebur plant response rating (cocklebur; [7]): 0
- Corn plant response rating (corn; [1]): 0
- Corn plant response rating (0 to 10 scale) (corn; [2]): 0
- Corn plant response rating (corn; [3]): 0
- Plant response rating, Corn (corn; [4]): 0
- Corn plant response rating (corn; [5]): 0
- Corn plant response rating (corn; [6]): 0
- Plant response rating (0 to 10; 0 is no effect, 10 is complete control), Corn (corn; Rate 250 g/ha, Postemergence): 0
- Corn plant response rating (corn; [7]): 0
- Crabgrass plant response rating (crabgrass; [1]): 4
- Crabgrass plant response rating (0 to 10 scale) (crabgrass; [2]): 5
- Crabgrass plant response rating (crabgrass; [3]): 6
- Plant response rating, Crabgrass (crabgrass; [4]): 6
- Crabgrass plant response rating (crabgrass; [5]): 0
- Crabgrass plant response rating (crabgrass; [6]): 0
- Plant response rating (0 to 10; 0 is no effect, 10 is complete control), Crabgrass (crabgrass; Rate 250 g/ha, Postemergence): 0
- Crabgrass plant response rating (crabgrass; [7]): 3
- Giant foxtail plant response rating (giant foxtail; [1]): 2
- Giant foxtail plant response rating (0 to 10 scale) (giant foxtail; [2]): 8
- Giant foxtail plant response rating (giant foxtail; [3]): 9
- Plant response rating, Giant foxtail (giant foxtail; [4]): 10
- Giant foxtail plant response rating (giant foxtail; [5]): 0
- Giant foxtail plant response rating (giant foxtail; [6]): 0
- Plant response rating (0 to 10; 0 is no effect, 10 is complete control), Giant foxtail (giant foxtail; Rate 250 g/ha, Postemergence): 0
- Giant foxtail plant response rating (giant foxtail; [7]): 1
- Morningglory plant response rating (morningglory; [1]): 0
- Morningglory plant response rating (0 to 10 scale) (morningglory; [2]): 0
- Morningglory plant response rating (morningglory; [3]): 0
- Plant response rating, Morningglory (morningglory; [4]): 0
- Morningglory plant response rating (morningglory; [5]): 1
- Morningglory plant response rating (morningglory; [6]): 1
- Plant response rating (0 to 10; 0 is no effect, 10 is complete control), Morningglory (morningglory; Rate 250 g/ha, Postemergence): 1
- Morningglory plant response rating (morningglory; [7]): 3
- Redroot pigweed plant response rating (pigweed; [1]): 0
- Redroot pigweed plant response rating (0 to 10 scale) (pigweed; [2]): 0
- Redroot pigweed plant response rating (pigweed; [3]): 0
- Plant response rating, Redroot pigweed (pigweed; [4]): 2
- Redroot pigweed plant response rating (pigweed; [5]): 0
- Redroot pigweed plant response rating (pigweed; [6]): 0
- Plant response rating (0 to 10; 0 is no effect, 10 is complete control), Redroot pigweed (pigweed; Rate 250 g/ha, Postemergence): 0
- Redroot pigweed plant response rating (pigweed; [7]): 0
- Rape plant response rating (rape; [1]): 0
- Rape plant response rating (0 to 10 scale) (rape; [2]): 0
- Rape plant response rating (rape; [3]): 0
- Plant response rating, Rape (rape; [4]): 0
- Rape plant response rating (rape; [5]): 0
- Rape plant response rating (rape; [6]): 0
- Plant response rating (0 to 10; 0 is no effect, 10 is complete control), Rape (rape; Rate 250 g/ha, Postemergence): 0
- Rape plant response rating (rape; [7]): 0
- Soybean plant response rating (soybean; [1]): 0
- Soybean plant response rating (0 to 10 scale) (soybean; [2]): 0
- Soybean plant response rating (soybean; [3]): 0
- Plant response rating, Soybean (soybean; [4]): 0
- Soybean plant response rating (soybean; [5]): 1
- Soybean plant response rating (soybean; [6]): 1
- Plant response rating (0 to 10; 0 is no effect, 10 is complete control), Soybean (soybean; Rate 250 g/ha, Postemergence): 2
- Soybean plant response rating (soybean; [7]): 2
- Velvetleaf plant response rating (velvetleaf; [1]): 0
- Velvetleaf plant response rating (velvetleaf; [3]): 0
- Plant response rating, Velvetleaf (velvetleaf; [4]): 3
- Velvetleaf plant response rating (velvetleaf; [5]): 1
- Velvetleaf plant response rating (velvetleaf; [6]): 1
- Plant response rating (0 to 10; 0 is no effect, 10 is complete control), Velvetleaf (velvetleaf; Rate 250 g/ha, Postemergence): 1
- Wheat plant response rating (wheat; [1]): 0
- Wheat plant response rating (wheat; [3]): 0
- Plant response rating, Wheat (wheat; [4]): 0
- Wheat plant response rating (wheat; [5]): 0
- Wheat plant response rating (wheat; [6]): 0
- Plant response rating (0 to 10; 0 is no effect, 10 is complete control), Wheat (wheat; Rate 250 g/ha, Postemergence): 0
- Wild oats plant response rating (wild oat; [1]): 0
- Wild oats plant response rating (wild oat; [3]): 0
- Plant response rating, Wild oats (wild oat; [4]): 3
- Wild oats plant response rating (wild oat; [5]): 0
- Wild oats plant response rating (wild oat; [6]): 0
- Plant response rating (0 to 10; 0 is no effect, 10 is complete control), Wild oats (wild oat; Rate 250 g/ha, Postemergence): 0
- Nutsedge plant response rating (purple nutsedge; [1]): 0
- Nutsedge plant response rating (0 to 10 scale) (purple nutsedge; [2]): 0
- Nutsedge plant response rating (purple nutsedge; [3]): 0
- Plant response rating, Nutsedge (purple nutsedge; [4]): 0
- Nutsedge plant response rating (purple nutsedge; [5]): 0
- Nutsedge plant response rating (purple nutsedge; [6]): 0
- Plant response rating (0 to 10; 0 is no effect, 10 is complete control), Nutsedge (purple nutsedge; Rate 250 g/ha, Postemergence): 0
- Nutsedge plant response rating (purple nutsedge; [7]): 0
